Results as given in PubChem BioAssay AID256 (DTP/NCI, 2004).
Inconclusive results and toxic doses are left out. The calls were made as follows: active = survival T/C of 150% or more; inactive = T/C below 125% in these data.

System: CD2F1 mice, L1210 leukemia ip, survival T/C
Test: NCI In Vivo Anticancer Drug Screen. Data for tumor model L1210 Leukemia (intraperitoneal) in CD2F1 (CDF1) mice
Conditions: endpoint: mean survival time, higher = longer survival
How it was run: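 Tumor-bearing mice (transplanted tumor) were split into treated and vehicle control groups, and the measured endpoint of each treated group was divided by that of its vehicle controls.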

[1] = dose: 100.0 mg/kg/injection, schedule: Q04DX003 (ip), vehicle: saline with Tween-80
[2] = dose: 200.0 mg/kg/injection, schedule: Q04DX003 (ip), vehicle: saline with Tween-80
[3] = dose: 400.0 mg/kg/injection, schedule: Q04DX003 (ip), vehicle: saline with Tween-80
[4] = dose: 50.0 mg/kg/injection, schedule: Q01DX009 (ip), vehicle: saline

Measured: T/C

CNS(=O)(=O)Cc1ccccc1
inactive: [1] 91 % of control | [2] 97 % of control | [3] 94 % of control

C=C(Br)CNC(=O)C(C)C
inactive: dose: 5.0 mg/kg/injection, schedule: Q01DX009 (ip), vehicle: saline with Tween-80 98 % of control | dose: 10.0 mg/kg/injection, schedule: Q01DX009 (ip), vehicle: saline with Tween-80 100 % of control | dose: 20.0 mg/kg/injection, schedule: Q01DX009 (ip), vehicle: saline with Tween-80 100 % of control

CC(=O)OCC1OC(N2C(=O)/C(=C/c3ccc4ccccc4c3)SC2=S)C(OC(C)=O)C(OC(C)=O)C1OC(C)=O (stereo not drawn)
inactive: dose: 3.13 mg/kg/injection, schedule: Q01DX005 (ip), vehicle: distilled water + Tween-80 88 % of control | dose: 6.25 mg/kg/injection, schedule: Q01DX005 (ip), vehicle: distilled water + Tween-80 94 % of control | dose: 12.5 mg/kg/injection, schedule: Q01DX005 (ip), vehicle: distilled water + Tween-80 96 % of control | dose: 25.0 mg/kg/injection, schedule: Q01DX005 (ip), vehicle: distilled water + Tween-80 98 % of control | dose: 50.0 mg/kg/injection, schedule: Q01DX005 (ip), vehicle: distilled water + Tween-80 100 % of control

COc1ccc(CCNC(=O)Cc2ccccc2)cc1OC
inactive: [1] 103 % of control | [2] 94 % of control | [3] 91 % of control

O=C1C=CC(=O)N1c1ccccc1Cl (tested in a mixture with another compound)
inactive: dose: 100.0 mg/kg/injection, schedule: Q01DX009 (ip), vehicle: saline with Tween-80 95 % of control | dose: 200.0 mg/kg/injection, schedule: Q01DX009 (ip), vehicle: saline with Tween-80 96 % of control | dose: 400.0 mg/kg/injection, schedule: Q01DX009 (ip), vehicle: saline with Tween-80 98 % of control

NC(N)=N/N=C(/c1ccccc1)c1ccc(F)cc1
inactive: [4] 101 % of control

Cc1cccc(-c2nn[nH]n2)n1
inactive: dose: 12.5 mg/kg/injection, schedule: Q01DX001 (ip), vehicle: saline with Tween-80 98 % of control | dose: 25.0 mg/kg/injection, schedule: Q01DX001 (ip), vehicle: saline with Tween-80 90 % of control | dose: 100.0 mg/kg/injection, schedule: Q01DX001 (ip), vehicle: saline 103 % of control | dose: 200.0 mg/kg/injection, schedule: Q01DX001 (ip), vehicle: saline 113 % of control | dose: 400.0 mg/kg/injection, schedule: Q01DX001 (ip), vehicle: saline 101 % of control

CCN(CCc1ccc(N)cc1)C(Cc1ccccc1)c1cccc(OC)c1 (stereo not drawn)
inactive: dose: 12.5 mg/kg/injection, schedule: Q01DX009 (ip), vehicle: saline 102 % of control | dose: 12.5 mg/kg/injection, schedule: Q04DX003 (ip), vehicle: saline 103 % of control | dose: 25.0 mg/kg/injection, schedule: Q01DX009 (ip), vehicle: saline 97 % of control | dose: 25.0 mg/kg/injection, schedule: Q04DX003 (ip), vehicle: saline 97 % of control | [4] 100 % of control | dose: 50.0 mg/kg/injection, schedule: Q04DX003 (ip), vehicle: saline 95 % of control

O=C1OC2(c3ccc(Cl)cc3Oc3cc(Cl)ccc32)c2ccccc21
inactive: dose: 100.0 mg/kg/injection, schedule: Q04DX002 (ip), vehicle: Klucel (hydroxypropylcellulose) (HPC) 101 % of control | dose: 200.0 mg/kg/injection, schedule: Q04DX002 (ip), vehicle: Klucel (hydroxypropylcellulose) (HPC) 97 % of control | dose: 400.0 mg/kg/injection, schedule: Q04DX002 (ip), vehicle: Klucel (hydroxypropylcellulose) (HPC) 89 % of control

CCOc1ccc(Br)cc1/C=C(\C#N)c1ccc([N+](=O)[O-])cc1
inactive: dose: 0.1 mg/kg/injection, schedule: Q01DX009 (ip), vehicle: saline with Tween-80 98 % of control | dose: 0.2 mg/kg/injection, schedule: Q01DX009 (ip), vehicle: saline with Tween-80 97 % of control | dose: 0.39 mg/kg/injection, schedule: Q01DX009 (ip), vehicle: saline with Tween-80 93 % of control | dose: 0.4 mg/kg/injection, schedule: Q01DX009 (ip), vehicle: saline with Tween-80 90 % of control | dose: 12.5 mg/kg/injection, schedule: Q04DX003 (ip), vehicle: saline with Tween-80 87 % of control | dose: 25.0 mg/kg/injection, schedule: Q04DX003 (ip), vehicle: saline with Tween-80 89 % of control | dose: 50.0 mg/kg/injection, schedule: Q04DX003 (ip), vehicle: saline with Tween-80 86 % of control

COc1cccc(C(=O)NC[n+]2ccccc2)c1
inactive: dose: 100.0 mg/kg/injection, schedule: Q04DX003 (ip), vehicle: saline 110 % of control

COc1ccc2occc2c1
inactive: [1] 94 % of control | [2] 94 % of control | [3] 91 % of control
